# Where two headings read alike, the source gives them in different places.
# Experiments:
# human cancer cell lines = experiment: Interference with paclitaxel- and platinum-induced cytotoxicity; type: cell-based
# Excerpt: Tavocept mediates the non-enzymatic xenobiotic modification of sulfur-containing amino acid residues (e.g., cysteine) on proteins. As an engineered, non-naturally occurring agent (i.e., xenobiotic), Tavocept is autocatalytic and requires no protein cofactor to cause the xenobiotic modification of cysteine, but appears to be specific for cysteine residues located within a particular structural context (i.e., not all cysteines in a protein are so modified). Tavocept-mediated, xenobiotic modification represents a novel mechanism of action for a cancer treating agent and can be compared to a degree with post-translational modifications of cysteine residues in proteins (see, Table 3, below).
# FTase = molecular target: T1, FTase (Homo sapiens, UniProt P49354+P49356); experiment: FTase-mediated farnesylation of Dansyl-GCVLS peptide; type: biochemical
# T1 construct: purchased Abcam
# T1 sequence (P49356 whole entry, one chain of several): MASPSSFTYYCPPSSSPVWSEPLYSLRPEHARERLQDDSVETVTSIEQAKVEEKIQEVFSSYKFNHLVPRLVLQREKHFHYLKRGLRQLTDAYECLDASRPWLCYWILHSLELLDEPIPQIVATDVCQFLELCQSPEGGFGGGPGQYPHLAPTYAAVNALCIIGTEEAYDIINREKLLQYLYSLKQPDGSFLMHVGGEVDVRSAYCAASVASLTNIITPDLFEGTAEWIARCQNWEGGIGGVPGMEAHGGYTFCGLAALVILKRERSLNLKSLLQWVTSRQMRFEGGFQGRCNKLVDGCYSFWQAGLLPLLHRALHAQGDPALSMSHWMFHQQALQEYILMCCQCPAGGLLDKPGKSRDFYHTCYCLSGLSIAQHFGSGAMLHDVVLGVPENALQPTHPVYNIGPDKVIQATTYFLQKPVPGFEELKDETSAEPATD
# [1] = test system: Stage IV primary adenocarcinoma of the lung; experiment: Tavocept Phase III Clinical Trial (Interim Analysis); type: in vivo, patients
# Excerpt: In the Tavocept Phase III Clinical Trial pre-specification was made through stratification factors including sex (i.e., male versus female) and taxane treatment (i.e., paclitaxel versus docetaxel). Eligible patients had not received prior drug treatment for their cancer, and inclusion in the trial was also allowed for patients who had relapsed following surgery for earlier stage disease as well as patients with central nervous system metastasis. A total of 540 patients were enrolled on the trial.
# The primary endpoint of this study was overall survival (OS); defined as the time period from the date of patient randomization to the date of death due to any cause.
# All patients received standard combination chemotherapy (taxane agent plus cisplatin) and either Tavocept or placebo.
# The primary endpoint for analysis was the duration of overall survival, defined as the time from the date of randomization to the date of death due to any cause. The number of mortality events used for the final analysis depended upon the number of patients enrolled into the study (provided the sample size was adjusted at the interim analysis). For the primary analysis, the expected number of total mortality events was approximately 416 mortality events for a sample size of 575 patients.
# The one-sided log-rank test was performed in order to allow the application of the adaptive methodology. Details of this 2-stage adaptive design are described below. Kaplan-Meier survival curves (including identification of censored observations) was presented by treatment group, as well as median survival times and their 95% confidence intervals.
# The following specific endpoints were evaluated with pre-specified analyses in order to evaluate for potential clinically and statistically significant differences between Tavocept- and placebo-treated patients.
# The incidence of cisplatin renal toxicity and anemia, and the impact of emesis on daily life were analyzed using the Cochran-Mantel-Haenszel (CMH) tests for proportions. The CMH test was applied in the comparison between Tavocept and placebo where adjustment for prognostic factors is clinically important (e.g., adjusting for baseline characteristics). To control for Type I error due to multiple comparisons of safety data, a nominal, 2-sided p-value of less than 0.0125 was used for each comparison of renal toxicity, anemia, and emesis.
# WT EGFR kinase = WT EGFR kinase (Homo sapiens, UniProt P00533); experiment: WT EGFR kinase assay (ADP-glo)
# WT EGFR kinase, sequence (P00533 25-1210): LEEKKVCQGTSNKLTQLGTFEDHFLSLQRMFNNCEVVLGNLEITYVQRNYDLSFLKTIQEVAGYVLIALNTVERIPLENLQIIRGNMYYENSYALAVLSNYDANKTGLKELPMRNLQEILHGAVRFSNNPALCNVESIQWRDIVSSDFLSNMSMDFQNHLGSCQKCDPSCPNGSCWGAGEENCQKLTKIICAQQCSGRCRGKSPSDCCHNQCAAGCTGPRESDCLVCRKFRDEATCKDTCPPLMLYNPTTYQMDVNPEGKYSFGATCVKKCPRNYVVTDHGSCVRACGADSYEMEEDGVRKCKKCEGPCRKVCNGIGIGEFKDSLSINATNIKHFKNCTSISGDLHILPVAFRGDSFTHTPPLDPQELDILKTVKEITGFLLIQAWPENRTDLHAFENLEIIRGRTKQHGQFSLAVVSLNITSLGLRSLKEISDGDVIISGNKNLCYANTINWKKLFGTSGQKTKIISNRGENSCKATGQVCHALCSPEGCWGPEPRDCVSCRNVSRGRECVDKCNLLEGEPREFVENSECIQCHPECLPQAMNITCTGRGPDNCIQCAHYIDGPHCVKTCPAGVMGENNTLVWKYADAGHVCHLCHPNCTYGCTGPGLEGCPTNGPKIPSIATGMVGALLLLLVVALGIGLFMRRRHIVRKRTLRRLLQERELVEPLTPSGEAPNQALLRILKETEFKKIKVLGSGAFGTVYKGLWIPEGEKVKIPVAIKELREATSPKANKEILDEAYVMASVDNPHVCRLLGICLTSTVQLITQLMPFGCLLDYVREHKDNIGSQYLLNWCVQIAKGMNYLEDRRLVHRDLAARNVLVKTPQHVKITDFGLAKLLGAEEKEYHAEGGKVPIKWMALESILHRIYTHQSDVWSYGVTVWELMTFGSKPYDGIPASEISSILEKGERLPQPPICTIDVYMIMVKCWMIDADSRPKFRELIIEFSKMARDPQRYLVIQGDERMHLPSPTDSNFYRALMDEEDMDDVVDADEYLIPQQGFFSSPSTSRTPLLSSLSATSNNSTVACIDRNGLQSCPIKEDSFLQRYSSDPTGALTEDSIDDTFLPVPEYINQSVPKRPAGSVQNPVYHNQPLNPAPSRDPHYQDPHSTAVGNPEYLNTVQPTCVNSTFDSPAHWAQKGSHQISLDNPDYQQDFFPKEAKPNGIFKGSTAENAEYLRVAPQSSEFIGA
# Recombinant human Trx = molecular target: T2, Recombinant human Trx (Homo sapiens, UniProt P10599); type: biochemical; parameters: 6xHis (N); purchased Sigma (Trx); American Diagnostica (bovine TrxR); conditions: Reaction B; disulfide 0.5 mM
# T2 sequence (P10599 1-105): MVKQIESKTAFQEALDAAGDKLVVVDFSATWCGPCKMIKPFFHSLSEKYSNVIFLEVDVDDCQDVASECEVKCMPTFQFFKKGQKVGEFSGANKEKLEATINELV
# Procedure: See, Luthman M and Holmgren A. Rat liver thioredoxin and thioredoxin reductase: purification and characterization. […] All disulfides were added to reactions as 10x solutions in buffer. The total volume of each reaction was 0.1 mL. Reactions were initiated by the addition of TrxR and were incubated at 25° C. for 40 minutes. Reactions were analyzed using a Molecular Devices SpectraMax Plus UV/vis plate reader and the activity was calculated using a 4 minute linear portion of each assay.
# [2] = Female Non-Smokers receiving paclitaxel and cisplatin
# [3] = Females receiving paclitaxel and cisplatin
# [4] = Male & Female Non-Smokers receiving paclitaxel and cisplatin
# [5] = read-out: inhibition of WT EGFR kinase activity
compound,measurement,setting,value
"O=S(=O)([O-])CCSSCCS(=O)(=O)[O-].[Na+].[Na+] [Tavocept, disodium 2,2′-dithio-bis-ethane sulfonate]",interference with paclitaxel- and platinum-induced cytotoxicity,human cancer cell lines,not to interfere
same,effect on FTase activity,FTase,Inhibition
same,Median survival,[1]; [2],27.0 months
same,Median survival advantage vs placebo,[1]; [2],13.6 months
same,Median survival,[1]; [3],25.0 months
same,Median survival advantage vs placebo,[1]; [3],11.8 months
same,Median survival,[1]; [4],25.2 months
same,Median survival advantage vs placebo,[1]; [4],12 months
same,Median survival advantage vs placebo,[1]; PS 1 ECOG Performance Status subjects,2.82 months
same,Median survival advantage vs placebo,[1]; PS 1 ECOG females receiving paclitaxel and cisplatin,11.1 months
same,Median survival advantage vs placebo,[1]; PS 1 ECOG males and females receiving paclitaxel and cisplatin,4.0 months
same,Median survival,[1]; Stage IV M1b subjects,11.33 months
same,2-year survival,[1]; all females receiving paclitaxel and cisplatin,51%
same,2-year survival,[1]; all subjects receiving paclitaxel and cisplatin,30%
same,Overall median survival advantage vs placebo,"[1]; all subjects, paclitaxel or docetaxel plus cisplatin, P=0.723",greater than 2 month
same,Protection against chemotherapy-induced kidney toxicity,"[1]; compared to placebo, P=0.0528",improvement in the relative creatine decrease from baseline
same,Anemia,[1]; compared to the placebo arm,reduced anemia
same,2-year survival,[1]; female non-smokers receiving paclitaxel and cisplatin,72.4%
same,Median survival advantage vs placebo,[1]; female subjects >=65 years receiving paclitaxel and cisplatin,2.1 months
same,Median survival,"[1]; female subjects receiving paclitaxel plus cisplatin, Newly Diagnosed",25.0 months
same,Median survival,"[1]; female subjects receiving paclitaxel plus cisplatin, no subsequent therapy",14.2 months
same,Survival vs placebo,"[1]; female subjects with CNS Metastases, paclitaxel plus cisplatin, P=0.0343",Survival advantage in favor of Tavocept
same,2-year survival,[1]; male and female non-smokers receiving paclitaxel and cisplatin,63%
same,Median survival advantage vs placebo,[1]; male and female subjects >=65 years receiving paclitaxel and cisplatin,3.5 months
same,Median survival,"[1]; male and female subjects receiving paclitaxel plus cisplatin, Newly Diagnosed",15.3 months
same,Median survival,"[1]; male and female subjects receiving paclitaxel plus cisplatin, no subsequent therapy",10.0 months
same,"Median period of additional survival after starting new chemotherapy, longer than placebo","[1]; patients previously receiving Tavocept, paclitaxel and cisplatin",3.4 months
same,Median overall survival from randomization,"[1]; patients receiving post-study new chemotherapy, paclitaxel and cisplatin",23.0 months
same,Median survival,[1]; subjects Newly Diagnosed at enrollment,14.19 months
same,Median survival advantage vs placebo,[1]; subjects greater than or equal to 65 years of age,3 months
same,Median survival,[1]; subjects who received paclitaxel and cisplatin,15.4 months
same,Median survival advantage vs placebo,[1]; subjects who received paclitaxel and cisplatin instead of docetaxel and cisplatin,3.68 months
same,Median survival,[1]; subjects with CNS Metastases present,11.76 months
same,"Overall survival, patients receiving post study therapy",[1]; vs 9.2 months placebo,12.2 months
same,potentiation of Erlotinib inhibition of WT EGFR kinase activity,WT EGFR kinase; 10 μM ATP,slightly potentiated
same,inhibition of WT EGFR kinase,"WT EGFR kinase; 100 μM ATP, physiological concentrations (<20 mM)",did not notably inhibit
same,IC50,"WT EGFR kinase; IC50 on WT EGFR kinase activity, 10 μM ATP",24.3 ± 3.7 mM
same,IC50,"WT EGFR kinase; IC50 on WT EGFR kinase activity, 100 μM ATP",≥ 40 mM
same,IC50,"WT EGFR kinase; read-out: IC50 on WT EGFR kinase activity, 10 μM ATP",24.3 mM
same,inhibition at 10000 µM,WT EGFR kinase; [5],39%
same,inhibition at 20000 µM,WT EGFR kinase; [5],44%
same,Reduction of disulfide by Trx in the presence of TrxR and NADPH,Recombinant human Trx,readily reduced
